# From PubChem BioAssay AID1963977 (Molecular Pharmacology Branch, DTP, NCI, 2024)
# Tested on: 624824-186-R-J3-PDC multicell spheroids, viability
# Assay: Anticancer human tumor 624824-186-R-J3-PDC patient-derived colon adenocarcinoma cell line growth inhibition [PI3K]
# Details: for IC50: curve of first compound; for viability, T/C: stronger effect = lower value
# From the text: Combinatorial screen of targeted agents with the PI3K inhibitors inavolisib, alpelisib, duvelisib, and copanlisib in multi-cell type tumor spheroids
# A high-throughput screen of multi-cell type tumor spheroids was designed to identify active combinations of targeted small molecules and PI3K pathway inhibitors. Complex spheroids include a stromal component modeled by human endothelial cells (HUVEC) and fibroblasts modeled by human mesenchymal stem cells (MSCs). The concentration ranges selected for each drug and investigational agent were based upon clinically achievable concentrations if the clinical Cmax of the agent was known.
# Compounds. The drugs and investigational agents: inavolisib (NSC800729), alpelisib (NSC765974), duvelisib (NSC772469), copanlisib (NSC816437), ipatasertib (NSC767898), afuresertib (NSC778305), talazoparib (NSC767125), sapanisertib (NSC764658), selumetinib (NSC741078), tovorafenib (DAY101, NSC766906), vemurafenib (NSC761431), ravoxertinib (NSC781343), sotorasib (NSC818433), MRTX1133 (NSC 836407), abemaciclib (NSC 768073), palbociclib (NSC758247), venetoclax (NSC 766270), SY5609 (NSC837396), enzalutamide (NSC755605), and darolutamide (NSC825331), were obtained from the National Cancer Institute (NCI) Developmental Therapeutics Program Chemical Repository. The FDA-approved anticancer drug set is available from the NCI Developmental Therapeutics Program. […] The stock solutions were prepared in dimethyl sulfoxide (DMSO, Sigma-Aldrich, St. Louis, MO, cat. D2650) at 800-fold the tested concentration and stored at -70 degrees C prior to their use. All drugs and investigational agents were tested over a range starting from a high concentration at or near the clinical Cmax and decreasing in half-log increments. If the clinical Cmax for an agent had not been determined, the highest concentration tested was 10 microM.
# Cell Culture. All cells were maintained in an incubator at 37 degrees C and 5% CO2 with 95% humidity. The PDC lines were cultured according to standard operating procedures established by the NCI PDMR (https://pdmr.cancer.gov/sops/default.htm). All PDCs were thawed and cultured in Matrigel-coated flasks prepared with a working solution of 1X Ham's F-12 nutrient mix, without supplementation (Invitrogen, Waltham, MA, cat. 11765054), 100 U/mL penicillin-streptomycin (Invitrogen, cat. 15140122), and 2.5% Matrigel (Corning Inc., Corning, NY, cat. 354248) for the first three passages. The 354836-022-R-J1-PDC, 475296-252-R-J1-PDC, and 997726-040-R-J2-PDC lines were cultured in 6A media, which includes advanced DMEM/F-12 (Thermo Fisher Scientific, cat. 12634028), 10 mM HEPES (Thermo Fisher Scientific, cat. 15630080), 1X GlutaMAX supplement (Thermo Fisher Scientific, cat. 35050061), 0.1 mg/mL primocin (InvivoGen, San Diego, CA, cat. ant-pm-2), 10% defined fetal bovine serum, heat inactivated (HyClone Laboratories Inc., Logan, UT, cat. SH30070.03HI), 50% L-WRN conditioned media (ATCC, cat. CRL-3276), 1.25 mM N-Acetyl-L-cysteine (Sigma-Aldrich, cat. A9165), 10 mM nicotinamide (Sigma-Aldrich, cat. N0636), 1X B-27 supplement (Thermo Fisher Scientific, cat. 17504044), 1X N-2 supplement (Thermo Fisher Scientific, cat. 17502048), and 10 microM Y-27632 dihydrochloride (Tocris Bioscience, Bristol, United Kingdom, cat. 1254). The 624824-186-R-J2-PDC line was cultured in 6C/Colon 1B media, which includes all 6A media components plus 50 ng/mL human EGF recombinant protein (Thermo Fisher Scientific, cat. PHG0311). […]
# [1] = second compound 0.0316 µM, first compound 0.0316 µM
# [2] = second compound 0.0316 µM, first compound 0.1 µM
# [3] = second compound 0.1 µM, first compound 0.0316 µM
# [4] = second compound 0.1 µM, first compound 0.1 µM
# [5] = second compound 0.316 µM, first compound 0.0316 µM
# [6] = second compound 0.316 µM, first compound 0.1 µM
# [7] = second compound 1 µM, first compound 0.0316 µM
# [8] = second compound 1 µM, first compound 0.1 µM
# 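Further: spheroids exposed to agents for seven days before luminescence read.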
# 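Wherever viability, T/C is given: luminescent signal used as a stand-in for spheroid viability; percent viability relative to DMSO vehicle control wells taken as 100%.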
smiles,measurement,setting,value
CC(=O)c1c(C)c2cnc(Nc3ccc(N4CCNCC4)cn3)nc2n(C2CCCC2)c1=O + CC(Nc1ccc2c(c1)OCCn1cc(N3C(=O)OCC3C(F)F)nc1-2)C(N)=O,IC50,second compound 0.00316 µM,> 0.1 µM
same,IC50,second compound 0.01 µM,> 0.1 µM
same,IC50,second compound 0.0316 µM,> 0.1 µM
same,IC50,second compound 0.1 µM,> 0.1 µM
same,IC50,second compound 0.316 µM,> 0.1 µM
same,IC50,second compound 1 µM,> 0.1 µM
same,"viability, T/C","second compound 0.00316 µM, first compound 0.000316 µM",100%
same,"viability, T/C","second compound 0.00316 µM, first compound 0.001 µM",101%
same,"viability, T/C","second compound 0.00316 µM, first compound 0.00316 µM",101%
same,"viability, T/C","second compound 0.00316 µM, first compound 0.01 µM",105%
same,"viability, T/C","second compound 0.00316 µM, first compound 0.0316 µM",99%
same,"viability, T/C","second compound 0.00316 µM, first compound 0.1 µM",110%
same,"viability, T/C","second compound 0.01 µM, first compound 0.000316 µM",108%
same,"viability, T/C","second compound 0.01 µM, first compound 0.001 µM",94.6%
same,"viability, T/C","second compound 0.01 µM, first compound 0.00316 µM",106%
same,"viability, T/C","second compound 0.01 µM, first compound 0.01 µM",102%
same,"viability, T/C","second compound 0.01 µM, first compound 0.0316 µM",108%
same,"viability, T/C","second compound 0.01 µM, first compound 0.1 µM",106%
same,"viability, T/C","second compound 0.0316 µM, first compound 0.000316 µM",101%
same,"viability, T/C","second compound 0.0316 µM, first compound 0.001 µM",105%
same,"viability, T/C","second compound 0.0316 µM, first compound 0.00316 µM",84.5%
same,"viability, T/C","second compound 0.0316 µM, first compound 0.01 µM",105%
same,"viability, T/C",[1],104%
same,"viability, T/C",[2],97.3%
same,"viability, T/C","second compound 0.1 µM, first compound 0.000316 µM",101%
same,"viability, T/C","second compound 0.1 µM, first compound 0.001 µM",99%
same,"viability, T/C","second compound 0.1 µM, first compound 0.00316 µM",95.7%
same,"viability, T/C","second compound 0.1 µM, first compound 0.01 µM",107%
same,"viability, T/C",[3],107%
same,"viability, T/C",[4],102%
same,"viability, T/C","second compound 0.316 µM, first compound 0.000316 µM",99.2%
same,"viability, T/C","second compound 0.316 µM, first compound 0.001 µM",95.5%
same,"viability, T/C","second compound 0.316 µM, first compound 0.00316 µM",106%
same,"viability, T/C","second compound 0.316 µM, first compound 0.01 µM",99.8%
same,"viability, T/C",[5],108%
same,"viability, T/C",[6],104%
same,"viability, T/C","second compound 1 µM, first compound 0.000316 µM",91.3%
same,"viability, T/C","second compound 1 µM, first compound 0.001 µM",96%
same,"viability, T/C","second compound 1 µM, first compound 0.00316 µM",97.9%
same,"viability, T/C","second compound 1 µM, first compound 0.01 µM",94.8%
same,"viability, T/C",[7],88.5%
same,"viability, T/C",[8],81.3%
CCCS(=O)(=O)Nc1ccc(F)c(C(=O)c2c[nH]c3ncc(-c4ccc(Cl)cc4)cc23)c1F + Cc1nc(NC(=O)N2CCCC2C(N)=O)sc1-c1ccnc(C(C)(C)C(F)(F)F)c1,IC50,second compound 0.0316 µM,5.14 µM
same,IC50,second compound 0.1 µM,4.63 µM
same,IC50,second compound 0.316 µM,3.75 µM
same,IC50,second compound 1 µM,1.99 µM
same,IC50,second compound 3.16 µM,0.525 µM
same,IC50,second compound 10 µM,0.0866 µM
same,"viability, T/C",[1],108%
same,"viability, T/C",[2],92.1%
same,"viability, T/C","second compound 0.0316 µM, first compound 0.316 µM",103%
same,"viability, T/C","second compound 0.0316 µM, first compound 1 µM",92.6%
same,"viability, T/C","second compound 0.0316 µM, first compound 3.16 µM",80.5%
same,"viability, T/C","second compound 0.0316 µM, first compound 10 µM",10.2%
same,"viability, T/C",[3],95.6%
same,"viability, T/C",[4],88.1%
same,"viability, T/C","second compound 0.1 µM, first compound 0.316 µM",94.6%
same,"viability, T/C","second compound 0.1 µM, first compound 1 µM",82.1%
same,"viability, T/C","second compound 0.1 µM, first compound 3.16 µM",69.7%
same,"viability, T/C","second compound 0.1 µM, first compound 10 µM",12.8%
same,"viability, T/C",[5],115%
same,"viability, T/C",[6],87.9%
same,"viability, T/C","second compound 0.316 µM, first compound 0.316 µM",80.7%
same,"viability, T/C","second compound 0.316 µM, first compound 1 µM",73.7%
same,"viability, T/C","second compound 0.316 µM, first compound 3.16 µM",68.4%
same,"viability, T/C","second compound 0.316 µM, first compound 10 µM",14.6%
same,"viability, T/C",[7],84.6%
same,"viability, T/C",[8],89.8%
same,"viability, T/C","second compound 1 µM, first compound 0.316 µM",62%
same,"viability, T/C","second compound 1 µM, first compound 1 µM",65.2%
same,"viability, T/C","second compound 1 µM, first compound 3.16 µM",43.7%
same,"viability, T/C","second compound 1 µM, first compound 10 µM",13.7%
same,"viability, T/C","second compound 3.16 µM, first compound 0.0316 µM",77.6%
same,"viability, T/C","second compound 3.16 µM, first compound 0.1 µM",64.8%
same,"viability, T/C","second compound 3.16 µM, first compound 0.316 µM",52%
same,"viability, T/C","second compound 3.16 µM, first compound 1 µM",44.6%
same,"viability, T/C","second compound 3.16 µM, first compound 3.16 µM",34.7%
same,"viability, T/C","second compound 3.16 µM, first compound 10 µM",9.51%
same,"viability, T/C","second compound 10 µM, first compound 0.0316 µM",57%
same,"viability, T/C","second compound 10 µM, first compound 0.1 µM",50.5%
same,"viability, T/C","second compound 10 µM, first compound 0.316 µM",36.1%
same,"viability, T/C","second compound 10 µM, first compound 1 µM",31.8%
same,"viability, T/C","second compound 10 µM, first compound 3.16 µM",26.6%
same,"viability, T/C","second compound 10 µM, first compound 10 µM",6.93%
